Test results from patent US6458593B1, “Immortalized cell lines and methods of making the same” (Vitro Diagnostics, Inc., priority 1999, dated 2002).
No end group written: not given here.

Legend:
Type in all cases: cell-based
[1] = system: primary cultured human pituitary cells; test: Pituitary hormone secretion from primary cultures of panned human pituitary cells; parameters: key to Effect on LH secretion / Effect on PRL secretion / Effect on FSH secretion / Effect on GH secretion: NE: no effect detected; +: stimulatory; −: inhibitory; conditions: for Optimum condition (concentration) for GH secretion / Optimum condition (concentration) for PRL secretion / Optimum condition (concentration) for FSH secretion / Optimum condition (concentration) for LH secretion: Gc medium
Procedure: Fetal human pituitary glands were obtained from Anatomical Gift Foundation (White Oak, Ga.) or Advanced Bioscience Resources, (Alameda, Calif.). Pituitary glands were stored in approximately 20 mls of RPMI culture media at 4° C. and processed within 24 hours of dissection. The gestational age ranged from 19 to 24 weeks. The following dispersion procedure was performed using sterile materials and technique throughout. Tissue was rinsed in 30 mls modified Kreb's Ringer solution, supplemented with 5 g/L bovine serum albumin (BSA) and nonessential amino acids. The tissue was then transferred to a glass microscope slide, and finely minced using scapels. Minced tissue was suspended in 2 to 2.25 mls modified Kreb's Ringer containing 1 mg/ml collagenase (Sigma Chemical Co., St. Louis, Mo.). The mixture was incubated at 37° C. with rotation at 250 rpm for 60 minutes. The dispersed cells were washed in 20 mls DMEM/F12 medium and centrifuged (5 minutes at 428×g). The supernatant was aspirated leaving 2-4 mls, and two additional washes were performed using 10 mls DMEM/F12. Cells were counted using a hemacytometer (Fresney, I R, 1987). The total number of cells ranged from 100,000 to 2 million per gland, with greater cell numbers in older pituitary glands. The mixture was centrifuged (5 minutes at 428×g). The pellet was then resuspended in culture media, as described below, at approximately 10^5 cells/ml and plated into multi-well, styrene tissue culture plates, incubated at 37° C. in humidified air supplemented with 5% CO2.
Primary culture conditions necessary for the proliferation of endocrine cells of the pituitary gland were investigated. The present invention requires cellular proliferation of target cells for integration of foreign DNA into the host cell genome and induction of immortalization. The pituitary gland is composed of numerous cell types including fibroblasts, follicular stellate cells, endocrine epithelial cells (gonadotropes, thyrotropes, somatotropes, lactotropes, melanotropes, corticotropes) and endothelial cells from blood vessels. Since the hormone-producing endocrine cells are one target of the present invention, we investigated methods to enrich the population of endocrine cells. […] Primary cultures were panned by initially plating the dispersed pituicytes in a single 35 mm tissue culture dish at about 5×10^4 cells/ml. After 16-24 hours, less adherent cells were removed from these cultures by repetitive pipetting of media (approximately 10 times). These cells were pelleted by centrifugation (5 minutes at 428×g) and replated at 10^5 cells/ml.
To monitor the viability and/or secretory capability of the hormone-producing endocrine cells, we measured secretion of pituitary hormones from cultures of panned pituitary cells. The level of FSH, LH, prolactin and TSH in culture media was determined using an automated chemiluminescent-based immunoanalyzer, ACS: 180™ (Chiron Diagnostics, Inc., Norwood, Mass.). Growth hormone was determined using an immunoradiometric assay (Nichols Institute, San Juan Capistrano, Calif.). Culture media was harvested on Mondays and Fridays from growing cultures for several weeks. These cultures were maintained in 48-well plates (Falcon/Becton Dickinson, Franklin Lakes, N.J.), with each well containing 1 ml of media. The majority of the media were carefully removed to avoid uptake of cells and transferred to 12×75 mm tubes for analysis. Cells were fed with an equal volume of fresh medium at the same time points. Background levels of GH in various media were insignificant (<0.1 ng/ml). Each condition was tested in duplicate and graphed values are the mean hormone concentration +/− standard deviation.
Similar types of experiments were done to optimize cell culture conditions and components for secretion of GH, FSH, LH, and prolactin from primary cultured human pituitary cells. […]

[2] = system: primary pituitary cultures; test: G418 selection: killing of non-transfected human pituitary cells
Procedure: Dispersed and panned cells human pituitary cells were plated at 200,000 to 300,000 cells per ml in 6-well plates (Falcon/Becton Dickinson, Franklin Lakes, N.J.) and grown until 30-50% confluent. Transfection was performed using cationic lipids to deliver plasmids containing either the SV40 large T antigen or the v-myc oncogene into primary-cultured pituitary cells. Plasmids without oncogenes were used as controls for transfection. Wells transfected with control plasmid slightly outlived primary cell cultures due to the presence of the gene coding for G418 resistance but died after 2 to 3 weeks or a single passage of the cells. Using Lipfectin®, we transfected panned pituitary cells with either pSV3neo (Southern, P J and Berg, P J, 1982) or pLXSN-v-myc, constructed as described below. The concentration of DNA was kept constant (typically […]) in each well while the amount of cationic lipid increased from 0-20 μl. […] The formation of colonies in the presence of G418 was monitored for a varying number of weeks.
Primary cultured human pituitary cells transfected with pSV3neo were incubated for an additional 48 to 60 hours in Gc medium with 10^−10 M estradiol and nonessential amino acids before G418 selection. […] Medium was replaced every 3 to 4 days and the formation of individual colonies was monitored visually. […]

[3] = system: immortalized bovine pituitary cells; test: Bovine GH secretion into conditioned media (immunoblot); conditions: 10 μM, 3 hours in media without FBS, passage 2-10
Procedure: Additional experiments were performed using highly sensitive immunological methods to detect bovine growth hormone within live, individual cells in the immortalized cultures. Bovine GH-specific monoclonal antibodies were obtained from Biogenesis, Inc. (Catalog No. 4750-0939) and OEM Concepts (Toms River, N.J.). […] A cellular blotting method was used to monitor bovine GH secretion from pituitary cells grown in culture, as described by Gibson-D'Ambrosio, et al. (1995). By localizing bovine GH within cultures, it was possible to obtain enriched cultures of bovine somatotropes prior to transfection with pSV3neo. […] These cell lines are indicated in Table 2 with the designation bGH, e.g., bGH C5.
To test for secretion of bovine GH from immortalized bovine cell line, cultures of passage 2-10 were grown to confluence in FBS-containing media, washed three times with PBS and incubated for 3 hours in media without FBS. Duplicate wells contained 10 μM bovine growth hormone releasing factor (GHRF).

[4] = primary human pituitary cultures
[5] = initial treatment, in the presence of cortisone and estrogen

C[C@]12CC[C@@H]3c4ccc(O)cc4CC[C@H]3[C@@H]1CC[C@@H]2O [17β-Estradiol]
Effect on GH secretion ([1]; 10^−10 M in medium, previous experiments): stimulatory effect
Effect on FSH secretion [1, 4]: NE
Effect on LH secretion [1, 4]: NE
Optimum condition (concentration) for GH secretion [1, 4]: 100 pM
Optimum condition (concentration) for PRL secretion [1, 4]: 100 pM

CN[C@@H]1[C@@H](O)[C@@H](O[C@@H]2[C@@H](O)[C@H](O[C@H]3O[C@H]([C@@H](C)O)[C@@H](O)[C@H](O)[C@H]3N)[C@@H](N)C[C@H]2N)OC[C@]1(C)O [G418]
Non-transfected cells killed ([2]; 250 μg/ml, final dose): 100%
Concentration sufficient to kill all primary pituitary cultures tested ([2]; human primary pituitary cultures): 150 µg/mL

C[C@]12CCC(=O)C=C1CC[C@@H]1[C@@H]2[C@@H](O)C[C@@]2(C)[C@H]1CC[C@]2(O)C(=O)CO [Hydrocortisone]
Effect on LH secretion [1, 4]: NE
Effect on PRL secretion [1, 4]: NE
Optimum condition (concentration) for FSH secretion [1, 4]: 5e-08 M
Optimum condition (concentration) for GH secretion [1, 4]: 50000 pM

N[C@@H](Cc1cc(I)c(Oc2ccc(O)c(I)c2)c(I)c1)C(=O)O [T3, 3,5,3′ triiodothyronine]
Effect on TSH release ([1]; 10^−10 M): strongly inhibitory
Effect on secretion of GH ([1]; 10^−10 M): beneficial
Effect on secretion of LH ([1]; 10^−10 M): beneficial
Effect on secretion of prolactin ([1]; 10^−10 M): beneficial
Effect on FSH secretion [1, 4]: NE
Optimum condition (concentration) for GH secretion [1, 4]: 100 pM
Optimum condition (concentration) for LH secretion [1, 4]: 1e-10 M
Optimum condition (concentration) for PRL secretion [1, 4]: 100 pM

FGF-basic: basic fibroblast growth factor, growth factor addition to the medium
Effect on GH release ([1]; 0.1 ng/ml, preliminary evidence): potentiates
Effect on FSH secretion [1, 4]: NE
Effect on LH secretion [1, 4]: NE
Effect on PRL secretion [1, 4]: NE
Optimum condition (concentration) for GH secretion [1, 4]: 0.1 ng/mL

GHRF: bovine growth hormone releasing factor (YADAIFTNSYRKVLGQLSARKLLQDIMNRQQGERNQEQGAKVRL; ends and bridges not checked; UniProt P63292 31-74, looked up)
Effect on amount of bovine GH secreted [3]: appeared to be potentiated

GnRH: gonadotropin releasing hormone, a hypothalamic releasing hormone (QHWSYGLRPG; ends and bridges not checked; UniProt P01148 24-33, looked up)
Effect on FSH secretion [1, 5]: significantly potentiated
Effect on LH secretion [1, 5]: significantly potentiated
Effect on GH secretion [1, 4]: NE
Effect on PRL secretion [1, 4]: NE
Optimum condition (concentration) for FSH secretion [1, 4]: 10^−10 M
Optimum condition (concentration) for LH secretion [1, 4]: 10^−7 to 10^−10M
